According to ChEMBL document CHEMBL2401651, “Discovery of novel P2 substituted 4-biaryl proline inhibitors of hepatitis C virus NS3 serine protease” (Bioorg Med Chem Lett, 2013):

What was measured:
Hepatitis C virus = assay: Antiviral activity against Hepatitis C virus infected in human […] cells after 72 hrs by luciferase reporter gene assay; format: functional, organism-based, Hepacivirus hominis
[1] = Permeability of the compound in human Caco2 cells; format: ADME, cell-based; settings: Caco-2, read-out: permeability
[2] = Half life in human liver microsomes; format: ADME, Microsome
[3] = Inhibition of Hepatitis C virus genotype 1 NS3 protease

Row | SMILES | EC50 (Hepatitis C virus) [nM] | Papp [1] [×10⁻⁶ cm/s] | half-life [2] [min] | IC50 [3] [nM] | Ki [3] [nM]
1 | C=C[C@@H]1C[C@]1(NC(=O)[C@@H]1C[C@@H](n2cnc(-c3ccccc3)c2)CN1C(=O)[C@@H](NC(=O)OC1CCCC1)C(C)(C)C)C(=O)NS(=O)(=O)C1CC1 | 1340 | 0.2 | 221 | 1.8 | –
2 | C=C[C@@H]1C[C@]1(NC(=O)[C@@H]1C[C@@H](n2cc(-c3ccccc3)c(C)n2)CN1C(=O)[C@@H](NC(=O)OC1CCCC1)C(C)(C)C)C(=O)NS(=O)(=O)C1CC1 | 320 | 0.7 | 6 | 2.5 | –
3 | C=C[C@@H]1C[C@]1(NC(=O)[C@@H]1C[C@@H](c2nc(-c3ccccc3)cs2)CN1C(=O)[C@@H](NC(=O)OC1CCCC1)C(C)(C)C)C(=O)NS(=O)(=O)C1CC1 | 580 | 4.4 | 143 | 3.2 | –
4 | C=C[C@@H]1C[C@]1(NC(=O)[C@@H]1C[C@@H](c2csc(-c3ccccc3)n2)CN1C(=O)[C@@H](NC(=O)OC1CCCC1)C(C)(C)C)C(=O)NS(=O)(=O)C1CC1 | 175 | 4.6 | 135 | 2.7 | –
5 | C=C[C@@H]1C[C@]1(NC(=O)[C@@H]1C[C@@H](c2csc(-c3cccnc3)n2)CN1C(=O)[C@@H](NC(=O)OC1CCCC1)C(C)(C)C)C(=O)NS(=O)(=O)C1CC1 | 915 | – | – | 12 | –
6 | C=C[C@@H]1C[C@]1(NC(=O)[C@@H]1C[C@@H](c2csc(-c3ccc(OC)cc3)n2)CN1C(=O)[C@@H](NC(=O)OC1CCCC1)C(C)(C)C)C(=O)NS(=O)(=O)C1CC1 | 530 | – | – | 5.2 | –
7 | C=C[C@@H]1C[C@]1(NC(=O)[C@@H]1C[C@@H](c2csc(-c3cccc(OC)c3)n2)CN1C(=O)[C@@H](NC(=O)OC1CCCC1)C(C)(C)C)C(=O)NS(=O)(=O)C1CC1 | 140 | – | – | 3.4 | –
8 | C=C[C@@H]1C[C@]1(NC(=O)[C@@H]1C[C@@H](c2csc(-c3ccccc3C)n2)CN1C(=O)[C@@H](NC(=O)OC1CCCC1)C(C)(C)C)C(=O)NS(=O)(=O)C1CC1 | 800 | – | – | 6 | –
9 | C=C[C@@H]1C[C@]1(NC(=O)[C@@H]1C[C@@H](c2csc(-c3ccccc3F)n2)CN1C(=O)[C@@H](NC(=O)OC1CCCC1)C(C)(C)C)C(=O)NS(=O)(=O)C1CC1 | 235 | – | – | 1.8 | –
10 | C=C[C@@H]1C[C@]1(NC(=O)[C@@H]1C[C@@H](c2csc(-c3cccc(OC)c3OC)n2)CN1C(=O)[C@@H](NC(=O)OC1CCCC1)C(C)(C)C)C(=O)NS(=O)(=O)C1CC1 | 240 | – | – | 4.1 | –
11 | C=C[C@@H]1C[C@]1(NC(=O)[C@@H]1C[C@@H](c2csc(-c3c(OC)cccc3OC)n2)CN1C(=O)[C@@H](NC(=O)OC1CCCC1)C(C)(C)C)C(=O)NS(=O)(=O)C1CC1 | 2200 | – | – | 17 | –
12 | C=C[C@@H]1C[C@]1(NC(=O)[C@@H]1C[C@@H](n2cc(-c3ccccc3)nn2)CN1C(=O)[C@@H](NC(=O)OC1CCCC1)C(C)(C)C)C(=O)NS(=O)(=O)C1CC1 | 430 | 1.1 | 94 | 2.7 | –

Molecules with a lower EC50 (Hepatitis C virus), results first:

Row | EC50 (Hepatitis C virus) [nM] | Papp [1] [×10⁻⁶ cm/s] | half-life [2] [min] | IC50 [3] [nM] | SMILES | Ki [3] [nM]
13 | 35 | – | – | 0.74 | C=C[C@@H]1C[C@]1(NC(=O)[C@@H]1C[C@@H](c2csc(-c3ccccc3OC)n2)CN1C(=O)[C@@H](NC(=O)OC1CCCC1)C(C)(C)C)C(=O)NS(=O)(=O)C1CC1 | –
14 | 37 | – | – | 0.78 | C=C[C@@H]1C[C@]1(NC(=O)[C@@H]1C[C@@H](c2csc(-c3ccccc3OCC)n2)CN1C(=O)[C@@H](NC(=O)OC1CCCC1)C(C)(C)C)C(=O)NS(=O)(=O)C1CC1 | –
15 | 89 | – | – | 2.2 | C=C[C@@H]1C[C@]1(NC(=O)[C@@H]1C[C@@H](c2csc(-c3ccc(OC)cc3OC)n2)CN1C(=O)[C@@H](NC(=O)OC1CCCC1)C(C)(C)C)C(=O)NS(=O)(=O)C1CC1 | –
16 | 16 | 7 | 69 | 0.9 | C=C[C@@H]1C[C@]1(NC(=O)[C@@H]1C[C@@H](c2csc(-c3cc(OC)ccc3OC)n2)CN1C(=O)[C@@H](NC(=O)OC1CCCC1)C(C)(C)C)C(=O)NS(=O)(=O)C1CC1 | 0.23
17 | 27 | – | – | 1.7 | C=C[C@@H]1C[C@]1(NC(=O)[C@@H]1C[C@@H](c2csc(-c3cc(C)ccc3OC)n2)CN1C(=O)[C@@H](NC(=O)OC1CCCC1)C(C)(C)C)C(=O)NS(=O)(=O)C1CC1 | –
18 | 28 | – | – | 1.1 | C=C[C@@H]1C[C@]1(NC(=O)[C@@H]1C[C@@H](c2csc(-c3cc(F)ccc3OC)n2)CN1C(=O)[C@@H](NC(=O)OC1CCCC1)C(C)(C)C)C(=O)NS(=O)(=O)C1CC1 | –
19 | 9 | 12 | 57 | 1.1 | C=C[C@@H]1C[C@]1(NC(=O)[C@@H]1C[C@@H](c2csc(-c3cc(OC)ccc3OC)n2)CN1C(=O)[C@@H](NC(=O)OC1CCCC1)C(C)(C)C)C(=O)NS(=O)(=O)C1(C)CC1 | –
